{"source": "patent US20240246942A1", "about": "“KINASE INHIBITORS FOR THE TREATMENT OF NEURODEGENERATIVE DISEASES” (priority 2020, published 2024)", "experiment_in_all_cases": "biochemical", "key": {"[1]": {"molecular_target": "T1, panel of 374 wild-type kinases (Homo sapiens, UniProt P17612)", "T1 construct": "purchased Reaction Biology Corporation", "details": "read-out: % Enzyme Activity (relative to DMSO controls), kinase PKA"}, "[2]": {"molecular_target": "T2, panel of 374 wild-type kinases (Homo sapiens, UniProt Q14680)", "T2 construct": "purchased Reaction Biology Corporation", "T2 sequence (Q14680 whole entry)": "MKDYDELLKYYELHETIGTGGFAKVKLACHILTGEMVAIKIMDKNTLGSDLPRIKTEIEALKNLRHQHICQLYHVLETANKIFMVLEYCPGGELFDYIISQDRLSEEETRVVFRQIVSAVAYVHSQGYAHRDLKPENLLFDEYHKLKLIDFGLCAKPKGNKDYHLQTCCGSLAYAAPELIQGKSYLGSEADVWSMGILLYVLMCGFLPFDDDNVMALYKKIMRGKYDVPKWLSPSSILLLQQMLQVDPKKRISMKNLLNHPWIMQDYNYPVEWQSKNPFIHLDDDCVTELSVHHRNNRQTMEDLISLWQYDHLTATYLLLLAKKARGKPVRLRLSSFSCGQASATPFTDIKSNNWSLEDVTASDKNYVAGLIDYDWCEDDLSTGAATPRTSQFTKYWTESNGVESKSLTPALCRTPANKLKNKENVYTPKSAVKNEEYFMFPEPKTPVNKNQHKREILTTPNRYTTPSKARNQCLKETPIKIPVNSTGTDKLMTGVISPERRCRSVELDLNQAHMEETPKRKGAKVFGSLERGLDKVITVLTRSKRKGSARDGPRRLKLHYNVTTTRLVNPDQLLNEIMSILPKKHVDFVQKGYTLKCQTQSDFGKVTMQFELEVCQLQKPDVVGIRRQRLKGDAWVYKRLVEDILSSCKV", "details": "read-out: % Enzyme Activity (relative to DMSO controls), MELK"}, "[3]": {"molecular_target": "T3, panel of 374 wild-type kinases (Homo sapiens, UniProt P54753)", "T3 construct": "purchased Reaction Biology Corporation", "T3 sequence (P54753 34-998)": "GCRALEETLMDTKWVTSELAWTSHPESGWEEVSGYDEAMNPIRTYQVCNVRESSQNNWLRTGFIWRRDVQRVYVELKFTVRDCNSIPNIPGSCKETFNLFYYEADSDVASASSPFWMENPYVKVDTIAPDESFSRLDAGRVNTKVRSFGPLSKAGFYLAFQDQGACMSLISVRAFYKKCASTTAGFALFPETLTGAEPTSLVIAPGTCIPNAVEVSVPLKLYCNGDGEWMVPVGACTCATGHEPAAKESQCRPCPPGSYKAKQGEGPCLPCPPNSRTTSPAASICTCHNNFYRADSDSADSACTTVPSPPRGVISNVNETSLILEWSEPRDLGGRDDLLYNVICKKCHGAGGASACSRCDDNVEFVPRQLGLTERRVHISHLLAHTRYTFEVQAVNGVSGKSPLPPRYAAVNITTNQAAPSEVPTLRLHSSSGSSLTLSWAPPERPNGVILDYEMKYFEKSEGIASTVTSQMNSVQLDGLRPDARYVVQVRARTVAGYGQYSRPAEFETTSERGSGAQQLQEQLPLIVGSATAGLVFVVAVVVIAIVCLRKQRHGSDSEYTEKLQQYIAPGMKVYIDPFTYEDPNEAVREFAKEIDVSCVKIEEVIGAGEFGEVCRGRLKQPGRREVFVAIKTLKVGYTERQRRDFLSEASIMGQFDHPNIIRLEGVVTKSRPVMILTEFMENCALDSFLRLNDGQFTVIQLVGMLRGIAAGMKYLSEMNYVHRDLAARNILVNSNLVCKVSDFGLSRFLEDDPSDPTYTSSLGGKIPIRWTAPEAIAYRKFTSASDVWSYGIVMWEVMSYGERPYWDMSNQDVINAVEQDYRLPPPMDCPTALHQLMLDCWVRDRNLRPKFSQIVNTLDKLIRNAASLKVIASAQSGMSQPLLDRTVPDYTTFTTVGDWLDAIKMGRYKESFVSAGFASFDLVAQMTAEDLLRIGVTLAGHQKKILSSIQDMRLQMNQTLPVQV", "details": "read-out: % Enzyme Activity (relative to DMSO controls), EPHB3"}, "[4]": {"molecular_target": "T4, panel of 374 wild-type kinases (Homo sapiens, UniProt Q6P5Z2)", "T4 construct": "purchased Reaction Biology Corporation", "T4 sequence (Q6P5Z2 whole entry)": "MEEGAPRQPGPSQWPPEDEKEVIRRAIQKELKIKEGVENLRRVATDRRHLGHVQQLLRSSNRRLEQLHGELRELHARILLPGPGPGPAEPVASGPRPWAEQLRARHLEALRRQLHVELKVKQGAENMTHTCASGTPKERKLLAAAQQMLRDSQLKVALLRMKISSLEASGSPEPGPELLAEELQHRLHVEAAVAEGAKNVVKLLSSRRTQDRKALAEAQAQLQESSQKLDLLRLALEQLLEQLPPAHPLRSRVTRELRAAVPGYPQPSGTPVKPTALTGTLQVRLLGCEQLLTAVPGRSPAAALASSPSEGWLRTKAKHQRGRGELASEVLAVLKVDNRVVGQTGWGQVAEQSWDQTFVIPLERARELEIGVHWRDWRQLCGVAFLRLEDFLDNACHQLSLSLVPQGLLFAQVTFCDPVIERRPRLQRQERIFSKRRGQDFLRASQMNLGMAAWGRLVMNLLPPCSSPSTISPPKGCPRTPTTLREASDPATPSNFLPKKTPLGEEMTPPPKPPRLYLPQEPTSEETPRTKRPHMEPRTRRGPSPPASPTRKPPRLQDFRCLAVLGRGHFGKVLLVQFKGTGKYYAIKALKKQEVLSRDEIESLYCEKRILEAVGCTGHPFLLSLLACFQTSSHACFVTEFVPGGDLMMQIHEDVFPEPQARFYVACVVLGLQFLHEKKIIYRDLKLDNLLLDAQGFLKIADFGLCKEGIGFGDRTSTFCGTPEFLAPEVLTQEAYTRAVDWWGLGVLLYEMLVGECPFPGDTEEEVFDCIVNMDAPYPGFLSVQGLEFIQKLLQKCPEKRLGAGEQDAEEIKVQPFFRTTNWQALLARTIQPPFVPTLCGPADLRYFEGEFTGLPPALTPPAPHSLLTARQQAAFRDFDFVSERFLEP", "details": "read-out: % Enzyme Activity (relative to DMSO controls), kinase PKN3/PRK3"}, "[5]": {"molecular_target": "T5, panel of 374 wild-type kinases (Homo sapiens, UniProt Q07002)", "T5 construct": "purchased Reaction Biology Corporation", "T5 sequence (Q07002 whole entry)": "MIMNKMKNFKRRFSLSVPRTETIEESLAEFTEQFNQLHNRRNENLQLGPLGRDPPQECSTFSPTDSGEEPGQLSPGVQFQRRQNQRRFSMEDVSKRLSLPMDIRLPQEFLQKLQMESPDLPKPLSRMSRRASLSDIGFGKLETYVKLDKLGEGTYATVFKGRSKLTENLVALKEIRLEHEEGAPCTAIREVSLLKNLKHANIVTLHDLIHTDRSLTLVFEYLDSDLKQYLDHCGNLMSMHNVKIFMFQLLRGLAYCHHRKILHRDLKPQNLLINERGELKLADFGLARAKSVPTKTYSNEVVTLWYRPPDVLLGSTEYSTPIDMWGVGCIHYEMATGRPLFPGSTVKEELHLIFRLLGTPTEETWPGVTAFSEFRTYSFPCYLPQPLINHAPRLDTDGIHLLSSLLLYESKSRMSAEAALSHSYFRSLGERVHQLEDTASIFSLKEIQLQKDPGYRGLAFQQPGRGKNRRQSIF", "details": "read-out: % Enzyme Activity (relative to DMSO controls), CDK18/cyclin Y (PCTK3)"}, "[6]": {"molecular_target": "T6, panel of 374 wild-type kinases (Homo sapiens, UniProt P09769)", "T6 construct": "purchased Reaction Biology Corporation", "T6 sequence (P09769 whole entry)": "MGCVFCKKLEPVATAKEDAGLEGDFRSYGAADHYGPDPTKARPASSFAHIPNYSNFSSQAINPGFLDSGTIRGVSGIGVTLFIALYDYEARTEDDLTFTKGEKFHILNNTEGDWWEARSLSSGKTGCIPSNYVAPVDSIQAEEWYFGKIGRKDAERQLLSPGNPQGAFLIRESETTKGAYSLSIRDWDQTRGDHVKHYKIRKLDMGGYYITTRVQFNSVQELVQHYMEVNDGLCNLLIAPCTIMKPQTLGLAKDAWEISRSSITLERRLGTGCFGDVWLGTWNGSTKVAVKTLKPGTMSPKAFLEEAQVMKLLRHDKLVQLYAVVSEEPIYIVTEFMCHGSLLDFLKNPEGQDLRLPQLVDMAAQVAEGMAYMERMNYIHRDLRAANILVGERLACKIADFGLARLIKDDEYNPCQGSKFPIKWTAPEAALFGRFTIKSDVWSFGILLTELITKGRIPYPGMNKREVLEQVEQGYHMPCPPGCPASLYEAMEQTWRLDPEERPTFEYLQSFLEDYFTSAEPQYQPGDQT", "details": "read-out: % Enzyme Activity (relative to DMSO controls), FGR"}, "[7]": {"molecular_target": "T7, panel of 374 wild-type kinases (Homo sapiens, UniProt Q15139)", "T7 construct": "purchased Reaction Biology Corporation", "T7 sequence (Q15139 1-912)": "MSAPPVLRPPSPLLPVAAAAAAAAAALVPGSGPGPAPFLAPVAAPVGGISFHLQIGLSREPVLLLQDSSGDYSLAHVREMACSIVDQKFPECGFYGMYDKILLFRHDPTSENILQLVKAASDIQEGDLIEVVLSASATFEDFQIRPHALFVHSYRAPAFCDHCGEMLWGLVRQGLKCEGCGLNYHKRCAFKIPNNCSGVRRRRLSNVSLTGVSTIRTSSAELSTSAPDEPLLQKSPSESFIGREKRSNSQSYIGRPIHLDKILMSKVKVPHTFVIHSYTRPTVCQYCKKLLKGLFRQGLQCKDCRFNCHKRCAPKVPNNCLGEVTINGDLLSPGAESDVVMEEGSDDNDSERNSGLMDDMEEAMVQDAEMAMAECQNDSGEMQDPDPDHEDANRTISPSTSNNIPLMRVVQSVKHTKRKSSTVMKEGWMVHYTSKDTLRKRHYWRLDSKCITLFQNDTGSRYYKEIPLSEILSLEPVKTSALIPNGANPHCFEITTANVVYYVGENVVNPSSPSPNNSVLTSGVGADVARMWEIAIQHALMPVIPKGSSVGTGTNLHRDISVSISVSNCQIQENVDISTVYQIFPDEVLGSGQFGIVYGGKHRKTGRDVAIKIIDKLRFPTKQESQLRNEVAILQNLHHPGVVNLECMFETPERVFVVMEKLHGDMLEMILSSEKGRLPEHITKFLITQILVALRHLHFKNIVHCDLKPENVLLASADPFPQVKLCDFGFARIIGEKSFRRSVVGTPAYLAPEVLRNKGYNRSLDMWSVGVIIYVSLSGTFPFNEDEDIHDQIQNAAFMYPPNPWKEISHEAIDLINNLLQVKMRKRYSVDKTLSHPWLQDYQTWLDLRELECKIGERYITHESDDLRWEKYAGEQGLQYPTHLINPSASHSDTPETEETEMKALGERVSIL", "details": "read-out: % Enzyme Activity (relative to DMSO controls), kinase PKCmu/PRKD1"}}, "data": [{"smiles": "O=C(Nc1cnn(-c2csc(C(=O)NC3COC3)c2)c1)Nc1ccccc1Cl", "note": "[Compound 17, 4-(4-(3-(2-chlorophenyl)ureido)-1H-pyrazol-1-yl)-N-(oxetan-3-yl)thiophene-2-carboxamide]", "values": [{"measurement": "remaining activity at 5 µM", "setting": "[1]", "result": 99.8, "unit": "%"}, {"measurement": "remaining activity at 5 µM", "setting": "[2]", "result": 48.7, "unit": "%"}, {"measurement": "remaining activity at 5 µM", "setting": "[3]", "result": 95.6, "unit": "%"}, {"measurement": "remaining activity at 5 µM", "setting": "[4]", "result": 92.5, "unit": "%"}, {"measurement": "remaining activity at 5 µM", "setting": "[5]", "result": 101, "unit": "%"}, {"measurement": "remaining activity at 5 µM", "setting": "[6]", "result": 90, "unit": "%"}, {"measurement": "remaining activity at 5 µM", "setting": "[7]", "result": 114, "unit": "%"}]}, {"smiles": "O=C(Nc1cnn(-c2csc(C(=O)NC3COC3)c2)c1)Nc1c(F)cccc1Cl", "note": "[Compound 25, 4-(4-(3-(2-chloro-6-fluorophenyl)ureido)-1H-pyrazol-1-yl)-N-(oxetan-3-yl)thiophene-2-carboxamide]", "values": [{"measurement": "remaining activity at 5 µM", "setting": "[1]", "result": 108, "unit": "%"}, {"measurement": "remaining activity at 5 µM", "setting": "[2]", "result": 61.4, "unit": "%"}, {"measurement": "remaining activity at 5 µM", "setting": "[3]", "result": 96.5, "unit": "%"}, {"measurement": "remaining activity at 5 µM", "setting": "[4]", "result": 76.2, "unit": "%"}, {"measurement": "remaining activity at 5 µM", "setting": "[5]", "result": 91.9, "unit": "%"}, {"measurement": "remaining activity at 5 µM", "setting": "[6]", "result": 95.5, "unit": "%"}, {"measurement": "remaining activity at 5 µM", "setting": "[7]", "result": 90.7, "unit": "%"}]}, {"smiles": "Cc1sc(C(=O)NC2COC2)cc1-n1cc(NC(=O)Nc2c(F)cccc2Cl)cn1", "note": "[Compound 27, 4-(4-(3-(2-chloro-6-fluorophenyl)ureido)-1H-pyrazol-1-yl)-5-methyl-N-(oxetan-3-yl)thiophene-2-carboxamide]", "values": [{"measurement": "remaining activity at 10 µM", "setting": "[1]; 10 uM", "result": 94.5, "unit": "%"}, {"measurement": "remaining activity at 10 µM", "setting": "[2]; 10 uM", "result": 103, "unit": "%"}, {"measurement": "remaining activity at 10 µM", "setting": "[3]; 10 uM", "result": 97.2, "unit": "%"}, {"measurement": "remaining activity at 10 µM", "setting": "[4]; 10 uM", "result": 98.6, "unit": "%"}, {"measurement": "remaining activity at 10 µM", "setting": "[5]; 10 uM", "result": 119, "unit": "%"}, {"measurement": "remaining activity at 10 µM", "setting": "[6]; 10 uM", "result": 80.2, "unit": "%"}, {"measurement": "remaining activity at 10 µM", "setting": "[7]; 10 uM", "result": 93.3, "unit": "%"}]}]}
